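Exposure lasted 48 hours, with cells grown in 96-well plates and compounds tested at five concentrations. TGI marks complete inhibition of growth.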
Columns and labels:
Assay in all cases: NCI tumour cell line growth inhibition, 48 h
NCI-H23 lung = system: NCI-H23 lung
SF-539 CNS = system: SF-539 CNS
HCC-2998 colon = system: HCC-2998 colon
SF-295 CNS = system: SF-295 CNS
SK-MEL-2 melanoma = system: SK-MEL-2 melanoma
LXFL 529 NSCLC = system: LXFL 529 NSCLC
MOLT-4 leukemia = system: MOLT-4 leukemia
UACC-62 melanoma = system: UACC-62 melanoma
OVCAR-8 ovarian = system: OVCAR-8 ovarian
RPMI-8226 leukemia = system: RPMI-8226 leukemia
SK-MEL-28 melanoma = system: SK-MEL-28 melanoma
IGROV1 ovarian = system: IGROV1 ovarian
HT29 colon = system: HT29 colon
HCT-15 colon = system: HCT-15 colon
DMS 114 small cell lung = system: DMS 114 small cell lung
ACHN renal = system: ACHN renal
M19-MEL melanoma = system: M19-MEL melanoma
SF-268 CNS = system: SF-268 CNS
M14 melanoma = system: M14 melanoma
HOP-62 NSCLC = system: HOP-62 NSCLC
CCRF-CEM leukemia = system: CCRF-CEM leukemia
A498 renal = system: A498 renal
COLO 205 colon = system: COLO 205 colon
SNB-78 CNS = system: SNB-78 CNS
SNB-75 CNS = system: SNB-75 CNS
K-562 leukemia = system: K-562 leukemia
786-0 renal = system: 786-0 renal
OVCAR-3 ovarian = system: OVCAR-3 ovarian
SK-OV-3 ovarian = system: SK-OV-3 ovarian
HL-60(TB) leukemia = system: HL-60(TB) leukemia
CAKI-1 renal = system: CAKI-1 renal
HOP-92 NSCLC = system: HOP-92 NSCLC
NCI-H522 lung = system: NCI-H522 lung
DMS 273 small cell lung = system: DMS 273 small cell lung
XF 498 CNS = system: XF 498 CNS
SNB-19 CNS = system: SNB-19 CNS
NCI-H226 lung = system: NCI-H226 lung
SN12C renal = system: SN12C renal
TK-10 renal = system: TK-10 renal
EKVX NSCLC = system: EKVX NSCLC
MALME-3M melanoma = system: MALME-3M melanoma
DLD-1 colon = system: DLD-1 colon
SW-620 colon = system: SW-620 colon
UACC-257 melanoma = system: UACC-257 melanoma
RXF 393 renal = system: RXF 393 renal
UO-31 renal = system: UO-31 renal
OVCAR-4 ovarian = system: OVCAR-4 ovarian
A549 NSCLC = system: A549 NSCLC
SK-MEL-5 melanoma = system: SK-MEL-5 melanoma
NCI-H460 lung = system: NCI-H460 lung
OVCAR-5 ovarian = system: OVCAR-5 ovarian
KM20L2 colon = system: KM20L2 colon
LOX IMVI melanoma = system: LOX IMVI melanoma
KM12 colon = system: KM12 colon
HS 578T breast = system: HS 578T breast
HCT-116 colon = system: HCT-116 colon
SR leukemia = system: SR leukemia
U251 CNS = system: U251 CNS
MDA-MB-435 = system: MDA-MB-435
MCF7 breast = system: MCF7 breast
DU-145 prostate = system: DU-145 prostate
BT-549 breast = system: BT-549 breast
PC-3 prostate = system: PC-3 prostate
NCI/ADR-RES ovarian = system: NCI/ADR-RES ovarian
T-47D breast = system: T-47D breast
MDA-N = system: MDA-N
MDA-MB-231 breast = system: MDA-MB-231 breast

With `COc1cccc(C2=NC(C(C)C)CO2)c1OC` (stereo not given) the TGI (NCI-H23 lung) was greater than 100 µM, the TGI (SF-539 CNS) was greater than 100 µM and the TGI (HCC-2998 colon) was greater than 100 µM. The TGI (SF-295 CNS) was greater than 100 µM, the TGI (SK-MEL-2 melanoma) was greater than 100 µM and the TGI (LXFL 529 NSCLC) was greater than 100 µM. It also gave a TGI (MOLT-4 leukemia) greater than 100 µM, a TGI (UACC-62 melanoma) greater than 100 µM and a TGI (OVCAR-8 ovarian) greater than 100 µM. The TGI (RPMI-8226 leukemia) was greater than 100 µM, the TGI (SK-MEL-28 melanoma) was greater than 100 µM and the TGI (IGROV1 ovarian) was greater than 100 µM. It also gave a TGI (HT29 colon) greater than 100 µM, a TGI (HCT-15 colon) greater than 100 µM and a TGI (DMS 114 small cell lung) greater than 100 µM. For the same molecule, the TGI (ACHN renal) was greater than 100 µM, the TGI (M19-MEL melanoma) was greater than 100 µM and the TGI (SF-268 CNS) was greater than 100 µM. For the same molecule, the TGI (M14 melanoma) was greater than 100 µM, the TGI (HOP-62 NSCLC) was greater than 100 µM and the TGI (CCRF-CEM leukemia) was greater than 100 µM. It also gave a TGI (A498 renal) greater than 100 µM, a TGI (COLO 205 colon) greater than 100 µM and a TGI (SNB-78 CNS) greater than 100 µM. The TGI (SNB-75 CNS) was greater than 100 µM, the TGI (K-562 leukemia) was greater than 100 µM and the TGI (786-0 renal) was greater than 100 µM. It also gave a TGI (OVCAR-3 ovarian) greater than 100 µM, a TGI (SK-OV-3 ovarian) greater than 100 µM and a TGI (HL-60(TB) leukemia) greater than 100 µM. For the same molecule, the TGI (CAKI-1 renal) was greater than 100 µM, the TGI (HOP-92 NSCLC) was greater than 100 µM and the TGI (NCI-H522 lung) was greater than 100 µM. For the same molecule, the TGI (DMS 273 small cell lung) was greater than 100 µM, the TGI (XF 498 CNS) was greater than 100 µM and the TGI (SNB-19 CNS) was greater than 100 µM. For the same molecule, the TGI (NCI-H226 lung) was greater than 100 µM, the TGI (SN12C renal) was greater than 100 µM and the TGI (TK-10 renal) was greater than 100 µM. For the same molecule, the TGI (EKVX NSCLC) was greater than 100 µM, the TGI (MALME-3M melanoma) was greater than 100 µM and the TGI (DLD-1 colon) was greater than 100 µM. For the same molecule, the TGI (SW-620 colon) was greater than 100 µM, the TGI (UACC-257 melanoma) was greater than 100 µM and the TGI (RXF 393 renal) was greater than 100 µM. For the same molecule, the TGI (UO-31 renal) was greater than 100 µM, the TGI (OVCAR-4 ovarian) was greater than 100 µM and the TGI (A549 NSCLC) was greater than 100 µM. The TGI (SK-MEL-5 melanoma) was greater than 100 µM, the TGI (NCI-H460 lung) was greater than 100 µM and the TGI (OVCAR-5 ovarian) was greater than 100 µM. It also gave a TGI (KM20L2 colon) greater than 100 µM, a TGI (LOX IMVI melanoma) greater than 100 µM and a TGI (KM12 colon) greater than 100 µM.
In the case of `COc1ccc(C2(CC(C)C)CCNC2)cc1OC` (stereo not given), the TGI (NCI-H23 lung) is reported as greater than 100 µM, the TGI (HCC-2998 colon) is reported as 38.5 µM and the TGI (SF-295 CNS) is reported as greater than 100 µM. It also gave a TGI (SK-MEL-2 melanoma) greater than 100 µM, a TGI (UACC-62 melanoma) greater than 100 µM and a TGI (OVCAR-8 ovarian) greater than 100 µM. It also gave a TGI (RPMI-8226 leukemia) greater than 100 µM, a TGI (SK-MEL-28 melanoma) greater than 100 µM and a TGI (IGROV1 ovarian) greater than 100 µM. It also gave a TGI (HT29 colon) greater than 100 µM, a TGI (HS 578T breast) greater than 100 µM and a TGI (HCT-15 colon) greater than 100 µM. It also gave a TGI (HCT-116 colon) greater than 100 µM, a TGI (SR leukemia) greater than 100 µM and a TGI (U251 CNS) greater than 100 µM. For the same molecule, the TGI (MDA-MB-435) was greater than 100 µM, the TGI (ACHN renal) was greater than 100 µM and the TGI (SF-268 CNS) was greater than 100 µM. For the same molecule, the TGI (M14 melanoma) was greater than 100 µM, the TGI (HOP-62 NSCLC) was greater than 100 µM and the TGI (MCF7 breast) was greater than 100 µM. It also gave a TGI (CCRF-CEM leukemia) greater than 100 µM, a TGI (DU-145 prostate) greater than 100 µM and a TGI (A498 renal) greater than 100 µM. The TGI (COLO 205 colon) was greater than 100 µM, the TGI (SNB-75 CNS) was 86.3 µM and the TGI (K-562 leukemia) was greater than 100 µM. For the same molecule, the TGI (786-0 renal) was greater than 100 µM, the TGI (SK-OV-3 ovarian) was greater than 100 µM and the TGI (HL-60(TB) leukemia) was greater than 100 µM. It also gave a TGI (BT-549 breast) greater than 100 µM, a TGI (CAKI-1 renal) greater than 100 µM and a TGI (HOP-92 NSCLC) greater than 100 µM. For the same molecule, the TGI (NCI-H522 lung) was greater than 100 µM, the TGI (SNB-19 CNS) was greater than 100 µM and the TGI (PC-3 prostate) was greater than 100 µM. The TGI (NCI-H226 lung) was greater than 100 µM, the TGI (SN12C renal) was greater than 100 µM and the TGI (TK-10 renal) was greater than 100 µM. It also gave a TGI (EKVX NSCLC) greater than 100 µM, a TGI (MALME-3M melanoma) greater than 100 µM and a TGI (SW-620 colon) greater than 100 µM. It also gave a TGI (NCI/ADR-RES ovarian) greater than 100 µM, a TGI (T-47D breast) greater than 100 µM and a TGI (UACC-257 melanoma) greater than 100 µM. It also gave a TGI (RXF 393 renal) greater than 100 µM, a TGI (UO-31 renal) greater than 100 µM and a TGI (OVCAR-4 ovarian) greater than 100 µM. For the same molecule, the TGI (MDA-N) was greater than 100 µM, the TGI (MDA-MB-231 breast) was greater than 100 µM and the TGI (A549 NSCLC) was greater than 100 µM. For the same molecule, the TGI (SK-MEL-5 melanoma) was greater than 100 µM, the TGI (NCI-H460 lung) was greater than 100 µM and the TGI (OVCAR-5 ovarian) was greater than 100 µM. It also gave a TGI (LOX IMVI melanoma) greater than 100 µM and a TGI (KM12 colon) greater than 100 µM.

Reference: PubChem BioAssay (NCI)
